The results in this text go back to patent US9357778B2, “N-acyl-2-(cyclo)alkypyrrolidines and piperidines useful as fungicides” (BAYER CROPSCIENCE AG, priority 2012, dated 2016).

Series [1] is described as follows: log P by HPLC on reversed-phase column (C 18), EEC Directive 79/831 Annex V.A8. Type of series: physicochemical. The settings on record: 40° C., 0.1% aqueous formic acid and acetonitrile. How it is done:
In table 1, the log P values were determined in accordance with EEC Directive 79/831 Annex V.A8 by HPLC (High Performance Liquid Chromatography) on a reversed-phase column (C 18), using the method described below: Temperature: 40° C.; Mobile phases: 0.1% aqueous formic acid and acetonitrile; linear gradient from 10% acetonitrile to 90% acetonitrile. Calibration was carried out using unbranched alkan-2-ones (comprising 3 to 16 carbon atoms) with known log P values (determination of the log P values by the retention times using linear interpolation between two successive alkanones). lambda-max-values were determined using UV-spectra from 200 nm to 400 nm and the peak values of the chromatographic signals.

Series [2] deals with Sphaerotheca fuliginea. As to the kind of experiment: In vivo preventive test on Sphaerotheca fuliginea (cucumber). The settings on record: 500 ppm of active ingredient, evaluated 7 days after inoculation. The protocol: In Vivo Preventive Test on Sphaerotheca Fulicinea (Cucumber) • Solvent: 49 parts by weight of N,N-dimethylformamide • Emulsifier: 1 part by weight of alkylarylpolyglycolether To produce a suitable preparation of active compound, 1 part by weight of active compound is mixed with the stated amounts of solvent and emulsifier, and the concentrate is diluted with water to the desired concentration. To test for preventive activity, young plants are sprayed with the preparation of active compound at the stated rate of application. One day after this treatment, the plants are inoculated with an aqueous spore suspension of Sphaerotheca fuliginea. Then the plants are placed in a greenhouse at approximately 23° C. and a relative atmospheric humidity of approximately 70%. The test is evaluated 7 days after the inoculation. 0% means an efficacy which corresponds to that of the untreated control, while an efficacy of 100% means that no disease is observed.

The test system of series [3] is Alternaria solani. Put plainly: In vivo preventive test on Alternaria solani (tomato). The settings on record: evaluated 7 days after inoculation. The protocol: In Vivo Preventive Test on Alternaria solani (Tomato) • Solvent: 49 parts by weight of N,N-dimethylformamide • Emulsifier: 1 part by weight of alkylarylpolyglycolether To produce a suitable preparation of active compound, 1 part by weight of active compound is mixed with the stated amounts of solvent and emulsifier, and the concentrate is diluted with water to the desired concentration. To test for preventive activity, young plants are sprayed with the preparation of active compound at the stated rate of application. One day after this treatment, the plants are inoculated with an aqueous spore suspension of Alternaria solani. The plants remain for one day in an incubation cabinet at approximately 22° C. and a relative atmospheric humidity of 100%. Then the plants are placed in an incubation cabinet at approximately 20° C. and a relative atmospheric humidity of 96%. The test is evaluated 7 days after the inoculation. 0% means an efficacy which corresponds to that of the untreated control while an efficacy of 100% means that no disease is observed.

The test system of series [4] is Pyrenophora teres. Put plainly: In vivo preventive test on Pyrenophora teres (barley). The conditions noted are these: 500 ppm of active ingredient, evaluated 7-9 days after inoculation. How it is done: In Vivo Preventive Test on Pyrenophora teres (Barley) • Solvent: 49 parts by weight of N,N-dimethylformamide • Emulsifier: 1 part by weight of alkylaryl polyglycol ether To produce a suitable preparation of active compound, 1 part by weight of active compound is mixed with the stated amounts of solvent and emulsifier, and the concentrate is diluted with water to the desired concentration. To test for preventive activity, young plants are sprayed with the preparation of active compound at the stated rate of application. One day after this treatment, the plants are inoculated with an aqueous spore suspension of Pyrenophora teres. The plants remain for 48 hours in an incubation cabinet at 22° C. and a relative atmospheric humidity of 100%. Then the plants are placed in a greenhouse at a temperature of approximately 20° C. and a relative atmospheric humidity of approximately 80%. The test is evaluated 7-9 days after the inoculation. 0% means an efficacy which corresponds to that of the untreated control while an efficacy of 100% means that no disease is observed.

The test system of series [5] is Leptosphaeria nodorum. As to the kind of experiment: In vivo preventive test on Leptosphaeria nodorum (wheat). The settings on record: evaluated 8 days after inoculation. How it is done:
In Vivo Preventive Test on Leptosphaeria nodorum (Wheat) • Solvent: 49 parts by weight of N,N-dimethylacetamide • Emulsifier: 1 part by weight of alkylaryl polyglycol ether To produce a suitable preparation of active compound, 1 part by weight of active compound or active compound combination is mixed with the stated amounts of solvent and emulsifier, and the concentrate is diluted with water to the desired concentration. To test for preventive activity, young plants are sprayed with the preparation of active compound or active compound combination at the stated rate of application. After the spray coating has been dried, the plants are sprayed with a spore suspension of Leptosphaeria nodorum. The plants remain for 48 hours in an incubation cabinet at approximately 20° C. and a relative atmospheric humidity of approximately 100%. The plants are placed in the greenhouse at a temperature of approximately 22° C. and a relative atmospheric humidity of approximately 80%. The test is evaluated 8 days after the inoculation. 0% means an efficacy which corresponds to that of the untreated control, while an efficacy of 100% means that no disease is observed.

One may read the logP as the decadic logarithm of the partition coefficient of the neutral form, usually between octanol and water. Low readings indicate a more hydrophilic compound, high ones a more lipophilic compound.

`Cn1cc(C(=O)N2CCCCC2C2CCCCC2)c(C(F)F)n1` (stereo not shown) [Example 25] returned a logP in series [1] of 3.15. Moreover, the Efficacy is on record as 100% in series [2], 90% in series [3] (100 ppm of active ingredient), 90% in series [3] (500 ppm of active ingredient) and 100% in series [4].

Take `CCCCCCC1CCCN1C(=O)c1c(C(F)F)nn(C)c1F` (stereo not shown) [Example 8]: the logP in series [1] was 3.80. In addition, the Efficacy was 98% in series [2], 100% in series [4], 90% in series [5] (100 ppm of active ingredient) and 95% in series [5] (500 ppm of active ingredient).

Turning to `Cn1cc(C(=O)N2CCCC2CC2CCCCC2)c(C(F)F)n1` (stereo not shown) [Example 15], the logP in series [1] was 3.33. The Efficacy was determined as 85% in series [2], 89% in series [3] (500 ppm of active ingredient) and 100% in series [4].

For `Cn1cc(C(=O)N2CCCC2CC2CC3CCC2C3)c(C(F)F)n1` (stereo not shown) [Example 49], the logP in series [1] worked out at 3.44. For the same compound, the Efficacy came out at 90% in series [2], 94% in series [3] (500 ppm of active ingredient), 100% in series [4] and 70% in series [5] (500 ppm of active ingredient).

As to `Cn1nc(C(F)F)c(C(=O)N2CCCC2C2CCCCC2)c1Cl` (stereo not shown) [Example 10], in series [1], the logP turned out to be 3.48. Also, the Efficacy amounted to 90% in series [2], 94% in series [3] (500 ppm of active ingredient) and 100% in series [4].

As for `Cn1nc(C(F)F)c(C(=O)N2CCCC2CC2CCCCC2)c1F` (stereo not shown) [Example 17], the log partition coefficient (logP) in series [1] was 3.78. Also, the Efficacy in series [2] came out at 100%; in series [3] (500 ppm of active ingredient) it was 94%; in series [4], 100%; in series [5] (100 ppm of active ingredient), 80%; in series [5] (500 ppm of active ingredient) it was 95%.

For the compound `Cn1nc(C(F)F)c(C(=O)N2CCCC2C2CCCCC2)c1F` (stereo not shown) [Example 11], in series [1], the logP was 3.31. The Efficacy was found to be 95% in series [2]; 94% in series [3] (500 ppm of active ingredient); 100% in series [4]; 80% in series [5] (100 ppm of active ingredient); 95% in series [5] (500 ppm of active ingredient).

Consider `CCCOCCC1CCCCN1C(=O)c1c(C(F)F)nn(C)c1F` (stereo not shown) [Example 29], for which the logP in series [1] stood at 2.73. For the same compound, the Efficacy in series [3] (500 ppm of active ingredient) came to 94%; in series [4], 100%.

With `Cn1nc(C(F)F)c(C(=O)N2CCCCC2CCOCCC2CCCCC2)c1F` (stereo not shown) [Example 44], in series [1], the logP was determined as 4.67. In addition, the results for the Efficacy in series [3] (500 ppm of active ingredient) and in series [4] were 89% and 100%, respectively.

In turn, `Cn1nc(C(F)F)c(C(=O)N2CCCCC2C2CCCCC2)c1F` (stereo not shown) [Example 24] had a lipophilicity (logP) in series [1] of 3.60. Also, the Efficacy in series [2] came to 95%; in series [3] (500 ppm of active ingredient), 94%; in series [4], 100%.

`Cn1nc(C(F)F)c(C(=O)N2CCCCC2CC2CCCCC2)c1F` (stereo not shown) [Example 26] gave a logP in series [1] of 4.19. In addition, the Efficacy in series [2], in series [3] (500 ppm of active ingredient) and in series [4] was 100% in each case.

In turn, `CCCCOCCC1CCCCN1C(=O)c1cn(C)nc1C(F)F` (stereo not shown) [Example 30] yielded a logP in series [1] of 2.80. Moreover, the Efficacy is 89% in series [3] (500 ppm of active ingredient) and 95% in series [4].

As for `Cn1nc(C(F)F)c(C(=O)N2CCCC2CC2CC3CCC2C3)c1Cl` (stereo not shown) [Example 50], the logP in series [1] is on record as 3.99. For the same compound, the Efficacy in series [3] (500 ppm of active ingredient) was 88%; in series [4], 100%.

With `CCCCCCC1CCCCN1C(=O)c1c(C(F)F)nn(C)c1Cl` (stereo not shown) [Example 21], in series [1], the logP amounted to 4.39. Further, the Efficacy in series [3] (500 ppm of active ingredient) and in series [4] was 100% each time.

`Cn1nc(C(F)F)c(C(=O)N2CCCCC2CCOCC2CCC2)c1Cl` (stereo not shown) [Example 36] yielded a logP in series [1] of 3.51. Also, the Efficacy came to 88% in series [3] (500 ppm of active ingredient) and 78% in series [4].

For the compound `Cn1nc(C(F)F)c(C(=O)N2CCCCC2C2CCCCC2)c1Cl` (stereo not shown) [Example 23], the logP in series [1] came out at 3.85. Also, the Efficacy was 88% in series [3] (500 ppm of active ingredient) and 100% in series [4].

For `CCCCCCC1CCCN1C(=O)c1c(C(F)F)nn(C)c1Cl` (stereo not shown) [Example 7], the logP in series [1] is 3.94. Moreover, the values for the Efficacy in series [3] (500 ppm of active ingredient) and in series [4] were 94% and 100%, respectively.

`Cn1nc(C(F)F)c(C(=O)N2CCCC2C23CC4CC(CC(C4)C2)C3)c1F` (stereo not shown) [Example 14] returned a logP in series [1] of 4.44. In addition, the figures for the Efficacy in series [2], in series [3] (500 ppm of active ingredient) and in series [4] were 70%, 94% and 100%, respectively.

Compound `Cn1nc(C(F)F)c(C(=O)N2CCCC2CC2CC3CCC2C3)c1F` (stereo not shown) [Example 48] displayed a logP in series [1] of 3.89. For the same compound, the Efficacy in series [2] came out at 100%; in series [3] (500 ppm of active ingredient), 100%; in series [4], 100%; in series [5] (500 ppm of active ingredient), 90%.

Take `Cn1cc(C(=O)N2CCCC2C2CCCCC2)c(C(F)F)n1` (stereo not shown) [Example 9]: the logP in series [1] is listed as 2.88. In addition, the Efficacy is recorded as 95% in series [2], 89% in series [3] (500 ppm of active ingredient) and 100% in series [4].

With `COCCCC1CCCCN1C(=O)c1c(C(F)F)nn(C)c1F` (stereo not shown) [Example 47], in series [1], the logP is reported as 2.18. For the same compound, the Efficacy in series [3] (500 ppm of active ingredient) is on record as 89%; in series [4], 100%.

`CCCCOCCC1CCCCN1C(=O)c1c(C(F)F)nn(C)c1F` (stereo not shown) [Example 32] returned a logP in series [1] of 3.19. Moreover, the Efficacy in series [3] (500 ppm of active ingredient) turned out to be 94%; in series [4], 100%.

For the compound `Cn1nc(C(F)F)c(C(=O)N2CCCC2CC2CCCCC2)c1Cl` (stereo not shown) [Example 16], in series [1], the logP is given as 3.89. For the same compound, the Efficacy in series [3] (500 ppm of active ingredient) was 94%; in series [4] it was 100%; in series [5] (500 ppm of active ingredient) it was 70%.

The compound `Cn1cc(C(=O)N2CCCC2C23CC4CC(CC(C4)C2)C3)c(C(F)F)n1` (stereo not shown) [Example 12] displayed a logP in series [1] of 3.89. Besides, the Efficacy in series [3] (100 ppm of active ingredient) was determined as 89%; in series [3] (500 ppm of active ingredient), 94%; in series [4], 100%.

Regarding `Cn1nc(C(F)F)c(C(=O)N2CCCCC2CCOCC2CCC2)c1F` (stereo not shown) [Example 37], the logP in series [1] was found to be 3.33. Further, the Efficacy in series [3] (500 ppm of active ingredient) and in series [4] was 94% each time.
